Values joined by “and” are separate entries in the source; they are usually repeats but may differ in a detail not shown here. Equal values may be shown once. Toxic doses and inconclusive results are not listed. Rule as the data show it: active = T/C of 150% or more; inactive = T/C below 125%.
Tested on: L1210 leukemia ip in BDF1 mice, survival T/C
Assay: NCI In Vivo Anticancer Drug Screen. Data for tumor model L1210 Leukemia (intraperitoneal) in B6D2F1 (BDF1) mice
Settings: endpoint: mean survival time, higher = longer survival
In short: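 Transplanted-tumor mice were given test agent; controls received vehicle only. Survival readings from the two groups were divided (treated over control).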

[1] = dose: 100.0 mg/kg/injection, schedule: Q04DX003 (ip), vehicle: Klucel (hydroxypropylcellulose) (HPC)
[2] = dose: 200.0 mg/kg/injection, schedule: Q04DX003 (ip), vehicle: Klucel (hydroxypropylcellulose) (HPC)
[3] = dose: 400.0 mg/kg/injection, schedule: Q04DX003 (ip), vehicle: Klucel (hydroxypropylcellulose) (HPC)
[4] = dose: 100.0 mg/kg/injection, schedule: Q01DX009 (ip), vehicle: Klucel (hydroxypropylcellulose) (HPC)
[5] = dose: 200.0 mg/kg/injection, schedule: Q01DX009 (ip), vehicle: Klucel (hydroxypropylcellulose) (HPC)
[6] = dose: 400.0 mg/kg/injection, schedule: Q01DX009 (ip), vehicle: Klucel (hydroxypropylcellulose) (HPC)
[7] = dose: 100.0 mg/kg/injection, schedule: Q04DX002 (ip), vehicle: Klucel (hydroxypropylcellulose) (HPC)
[8] = dose: 200.0 mg/kg/injection, schedule: Q04DX002 (ip), vehicle: Klucel (hydroxypropylcellulose) (HPC)
[9] = dose: 400.0 mg/kg/injection, schedule: Q04DX002 (ip), vehicle: Klucel (hydroxypropylcellulose) (HPC)
[10] = dose: 100.0 mg/kg/injection, schedule: Q04DX002 (ip), vehicle: saline with Tween-80
[11] = dose: 200.0 mg/kg/injection, schedule: Q04DX002 (ip), vehicle: saline with Tween-80
[12] = dose: 400.0 mg/kg/injection, schedule: Q04DX002 (ip), vehicle: saline with Tween-80
[13] = dose: 100.0 mg/kg/injection, schedule: Q01DX001 (ip), vehicle: saline
[14] = dose: 200.0 mg/kg/injection, schedule: Q01DX001 (ip), vehicle: saline
[15] = dose: 400.0 mg/kg/injection, schedule: Q01DX001 (ip), vehicle: saline

Measured: T/C

N#Cc1cnn(C(N)=O)c1N
inactive: [1] 100 % of control | [2] 95 % of control | [3] 100 % of control

CCOC(=O)NC(CC)CO (stereo unspecified)
inactive: [4] 96 % of control | [1] 96 % of control | [5] 92 % of control | [2] 104 % of control | [6] 108 % of control | [3] 96 % of control

COc1ccc2c(c1)CSC(c1ccccc1)C2=O (stereo unspecified)
inactive: [7] 105 % of control | [8] 97 % of control | [9] 90 % of control

C=C(OCC)P(=O)(OCCCC)OCCCC
inactive: [10] 100 % of control | [11] 90 % of control | [12] 93 % of control

C=CCn1c(=O)n(CC=C)c(=O)n(CC=C)c1=O
inactive: [13] 108 % of control | dose: 100.0 mg/kg/injection, schedule: Q04DX003 (ip), vehicle: carboxymethylcellulose (CMC) 106 % of control | [14] 102 % of control | dose: 200.0 mg/kg/injection, schedule: Q04DX003 (ip), vehicle: carboxymethylcellulose (CMC) 92 % of control | [15] 104 % of control | dose: 400.0 mg/kg/injection, schedule: Q04DX003 (ip), vehicle: carboxymethylcellulose (CMC) 95 % of control

CC(SCc1ccccc1)C(=O)O (stereo unspecified)
inactive: [13] 97 % of control | [14] 94 % of control | [15] 92 % of control

CCSCCC#N
inactive: dose: 100.0 mg/kg/injection, schedule: Q04DX002 (ip), vehicle: saline 103 % of control | dose: 200.0 mg/kg/injection, schedule: Q04DX002 (ip), vehicle: saline 109 % of control

O=[N+]([O-])c1cc(N(c2ccccc2)c2ccccc2)ccc1Cl
inactive: dose: 100.0 mg/kg/injection, schedule: Q01DX001 (ip), vehicle: carboxymethylcellulose (CMC) 97 % of control | dose: 200.0 mg/kg/injection, schedule: Q01DX001 (ip), vehicle: carboxymethylcellulose (CMC) 97 % of control | dose: 400.0 mg/kg/injection, schedule: Q01DX001 (ip), vehicle: carboxymethylcellulose (CMC) 95 % of control

O=C1c2ccccc2C(=O)c2cc(Cl)ccc21
inactive: [7] 95 % of control | [8] 98 % of control | [9] 98 % of control

COC(=O)CCC(=O)Nc1ccccc1C(C)=O
inactive: dose: 100.0 mg/kg/injection, schedule: Q04DX003 (ip), vehicle: saline with Tween-80 104 % of control | dose: 200.0 mg/kg/injection, schedule: Q04DX003 (ip), vehicle: saline with Tween-80 93 % of control | dose: 400.0 mg/kg/injection, schedule: Q04DX003 (ip), vehicle: saline with Tween-80 93 % of control

CN(C)C(=S)Oc1c([N+](=O)[O-])cc([N+](=O)[O-])cc1C(C)(C)C
inactive: dose: 25.0 mg/kg/injection, schedule: Q04DX002 (ip), vehicle: saline with Tween-80 86 % of control | dose: 50.0 mg/kg/injection, schedule: Q04DX002 (ip), vehicle: saline with Tween-80 86 % of control

O=C1C2=C(c3ccccc31)C1c3ccccc3C(=O)C1(c1ccccc1)c1ccccc12 (stereo unspecified)
inactive: [13] 105 % of control | [14] 97 % of control | [15] 92 % of control

O=C1c2ccccc2C(=O)c2c(NC(=O)C(Cl)CCl)cccc21 (stereo unspecified)
inactive: dose: 75.0 mg/kg/injection, schedule: Q01DX001 (ip), vehicle: saline 94 % of control | dose: 150.0 mg/kg/injection, schedule: Q01DX001 (ip), vehicle: saline 90 % of control and 92 % of control | dose: 300.0 mg/kg/injection, schedule: Q01DX001 (ip), vehicle: saline 97 % of control

OC(c1ccccc1)(c1ccccc1)C(O)(c1ccccc1)c1ccccc1
inactive: dose: 12.5 mg/kg/injection, schedule: Q04DX002 (ip), vehicle: Klucel (hydroxypropylcellulose) (HPC) 94 % of control | dose: 25.0 mg/kg/injection, schedule: Q04DX002 (ip), vehicle: Klucel (hydroxypropylcellulose) (HPC) 97 % of control and 122 % of control | dose: 50.0 mg/kg/injection, schedule: Q04DX002 (ip), vehicle: Klucel (hydroxypropylcellulose) (HPC) 115 % of control and 91 % of control | [7] 97 % of control | dose: 100.0 mg/kg/injection, schedule: Q04DX002 (ip), vehicle: gum acacia 92 % of control | [10] 102 % of control | [1] 96 % of control | dose: 200.0 mg/kg/injection, schedule: Q04DX002 (ip), vehicle: gum acacia 89 % of control | [11] 99 % of control | [2] 88 % of control | dose: 400.0 mg/kg/injection, schedule: Q04DX002 (ip), vehicle: gum acacia 95 % of control | [12] 99 % of control | [3] 95 % of control

Cc1ccc(S(=O)(=O)C=C(c2ccccc2)c2ccccc2)cc1
inactive: dose: 100.0 mg/kg/injection, schedule: Q01DX001 (ip), vehicle: Klucel (hydroxypropylcellulose) (HPC) 98 % of control | [1] 100 % of control | dose: 200.0 mg/kg/injection, schedule: Q01DX001 (ip), vehicle: Klucel (hydroxypropylcellulose) (HPC) 96 % of control | [2] 95 % of control | dose: 400.0 mg/kg/injection, schedule: Q01DX001 (ip), vehicle: Klucel (hydroxypropylcellulose) (HPC) 104 % of control | [3] 95 % of control

CCCCCCOC(=O)CCCCCCCCCCC(=O)CCCCCC
inactive: dose: 50.0 mg/kg/injection, schedule: Q01DX009 (ip), vehicle: Klucel (hydroxypropylcellulose) (HPC) 97 % of control | dose: 50.0 mg/kg/injection, schedule: Q04DX003 (ip), vehicle: saline 101 % of control | [4] 108 % of control | dose: 100.0 mg/kg/injection, schedule: Q04DX003 (ip), vehicle: saline 103 % of control | [5] 92 % of control | dose: 200.0 mg/kg/injection, schedule: Q04DX003 (ip), vehicle: saline 106 % of control

CCCCCCCCCCCCCCCCCC(=O)N/N=C\c1ccc(O)c(OC)c1
inactive: [4] 95 % of control | [5] 90 % of control | [6] 88 % of control

Reference: PubChem BioAssay AID248 (DTP/NCI, 2004)
